Test results taken from ChEMBL document CHEMBL5303304, “EUbOPEN Chemogenomics Library - IncuCyte” (2023).

Tests used:
Type in all cases: toxicity, cell-based
Fibroblast = assay: Incucyte cell viability with human fibroblast; conditions: 10 µM, compound concentration 10 uM
U2OS = assay: Incucyte cell viability with U2OS; conditions: human, 10 µM, compound concentration 10 uM
HEK-293T = assay: Incucyte cell viability with HEK293T; conditions: human, 10 µM, compound concentration 10 uM
Also: unitless GR value; below 1 slowed growth and below 0 cell loss.

Structure (SMILES)	Growth Rate (Fibroblast; 0 h, replicate number 1)	Growth Rate (Fibroblast; 0 h, replicate number 2)	Growth Rate (U2OS; 0 h, replicate number 2)	Growth Rate (HEK-293T; 0 h, replicate number 1)	Growth Rate (HEK-293T; 0 h, replicate number 2)	Growth Rate (U2OS; 6 h, replicate number 2)	Growth Rate (U2OS; 12 h, replicate number 2)	Growth Rate (U2OS; 18 h, replicate number 2)	Growth Rate (U2OS; 24 h, replicate number 1)	Growth Rate (U2OS; 24 h, replicate number 2)	Growth Rate (HEK-293T; 6 h, replicate number 1)	Growth Rate (HEK-293T; 6 h, replicate number 2)	Growth Rate (HEK-293T; 12 h, replicate number 2)	Growth Rate (HEK-293T; 18 h, replicate number 1)	Growth Rate (HEK-293T; 24 h, replicate number 1)	Growth Rate (Fibroblast; 12 h, replicate number 2)	Growth Rate (Fibroblast; 18 h, replicate number 2)	Growth Rate (Fibroblast; 24 h, replicate number 2)	Growth Rate (HEK-293T; 18 h, replicate number 2)	Growth Rate (HEK-293T; 24 h, replicate number 2)	other results
Cc1ccccc1C1C(=O)N(C)c2cnc(Nc3ccc(S(N)(=O)=O)cc3)nc2N1C (stereo not drawn)	-0.58	-0.9	-0.83	-0.37	-0.88																Growth Rate (Fibroblast; 6 h, replicate number 1): -1; Growth Rate (U2OS; 0 h, replicate number 1): -0.73
O=C1Nc2nc(-c3c(O)cccc3OCC3CC3)cc([C@@H]3CCCNC3)c2CO1		-0.79	-0.52	0.88	-0.36	0.44	0.47	0.79	0.83	0.98	0.72	0.83	0.47	0.78	0.93						Growth Rate (HEK-293T; 12 h, replicate number 1): 0.62
CNc1nc(Nc2ccc(C(=O)N3CCOCC3)cc2OC)ncc1Cl	-0.99										0.75	0.81		0.99	0.92	0.72	0.63	0.99	0.96	0.96	Growth Rate (Fibroblast; 6 h, replicate number 2): 0.67; Growth Rate (U2OS; 6 h, replicate number 1): -0.99
CC1=NC(C=C2C(=O)Nc3ccc(F)cc32)=C(C)C1C(=O)NCC(O)CN1CCOCC1 (stereo not drawn)	0.4		-0.99	0.76	-0.67															0.99	Growth Rate (Fibroblast; 6 h, replicate number 1): -0.99
Cc1cc(C2CCCNC2)ccc1Nc1ncc(Br)c(NCc2cccc3c2C(C)(C)C(=O)N3)n1 (stereo not drawn)						0.86	0.61	0.46	0.8	0.37	0.39	0.05	0.09	0.07	-0.01	0.81	0.49	0.32	0.12	0.13	Growth Rate (Fibroblast; 18 h, replicate number 1): 0.61; Growth Rate (Fibroblast; 24 h, replicate number 1): 0.34; Growth Rate (U2OS; 0 h, replicate number 1): -0.95; Growth Rate (U2OS; 18 h, replicate number 1): 0.88; Growth Rate (HEK-293T; 12 h, replicate number 1): 0.08
CN1CCN(c2nc(C3=C(c4c[nH]c5ccccc45)C(=O)NC3=O)c3ccccc3n2)CC1 [SOTRASTAURIN]		-0.97	-0.29	-0.3	-0.61																Growth Rate (Fibroblast; 6 h, replicate number 1): -0.88; Growth Rate (Fibroblast; 12 h, replicate number 1): -1; Growth Rate (U2OS; 0 h, replicate number 1): -0.78
O=C(O)c1ccnc(N2CC(O)(c3ccc(OCc4c(-c5c(Cl)cccc5Cl)noc4C4CC4)cc3Cl)C2)c1 [CILOFEXOR]				0.8	0.73		1					0.54	0.68		0.89			0.8	0.85	1	Growth Rate (Fibroblast; 6 h, replicate number 2): -0.03; Growth Rate (Fibroblast; 18 h, replicate number 1): 0.87
O=C(Nc1cc(-c2cn[nH]c2)ccc1N1CCOCC1)c1ccc(-c2ccc3ncccc3c2)o1	-0.23		-0.65	0.85	0.49		0.75		0.44	0.4	-0.44	-0.29	-0.19	0.02	-0.01	0.42	0.64	0.77	0.04	0.06	Growth Rate (Fibroblast; 6 h, replicate number 1): -1; Growth Rate (U2OS; 18 h, replicate number 1): 0.39; Growth Rate (HEK-293T; 12 h, replicate number 1): -0.07
COc1cc(NC(=O)c2ccc(-c3ccc(Cl)cc3)o2)cc(OC)c1	0.51				0.52	0.2	0.72	0.89	0.98	0.79	0.31					0.03	0.54	0.45			Growth Rate (Fibroblast; 6 h, replicate number 2): -1; Growth Rate (Fibroblast; 18 h, replicate number 1): 0.5; Growth Rate (U2OS; 0 h, replicate number 1): 0.66
CN(C)C/C=C/C(=O)Nc1cccc(S(=O)(=O)N2CCC(NC(=O)c3n[nH]cc3NC(=O)c3c(Cl)cc(Cl)cc3Cl)CC2)c1						0.35	-0.3	-0.38	-0.51	-0.42	-0.58	-0.85	-0.7	-0.34	-0.05	0.45	0.09	-0.13	-0.61	-0.34	Growth Rate (Fibroblast; 6 h, replicate number 2): 0.98; Growth Rate (Fibroblast; 12 h, replicate number 1): 0.8; Growth Rate (Fibroblast; 18 h, replicate number 1): 0.26; Growth Rate (Fibroblast; 24 h, replicate number 1): 0.12; Growth Rate (U2OS; 12 h, replicate number 1): 0.1; Growth Rate (U2OS; 18 h, replicate number 1): -0.42; Growth Rate (HEK-293T; 12 h, replicate number 1): -0.49
N#Cc1c(SCc2csc(-c3ccc(Cl)cc3)n2)nc(N2CCCC2)c(C#N)c1-c1ccc(OCCO)cc1		-1	0.14	-0.68	-0.75	0.8	0.77	0.93		0.97											Growth Rate (U2OS; 6 h, replicate number 1): 0.87
